Assay results from patent publication US20100074955A1, “Combination of NMDA-Receptor Ligand and a Compound With 5-HT6 Receptor Affinity” (LABORATORIOS DEL DR. ESTEVE, S.A., priority 2006, published 2010).

System: adult male Lister Hooded rats
Test: Test of novel object discrimination in rats
Assay type: in vivo, rat
Details: memantine alone 5, 10, 15 and 20 mg/kg i.p. vs vehicle, 20 minutes before trial, 4 hour inter-trial interval, FIG. 1
Method: Adult male Lister Hooded rats (Charles River, UK) weighing 200-350 g at the start of the experiment were housed in groups of four on a 12:12 h light:dark cycle (lights on at 07:00 h). Food and water were available ad libitum throughout the study, and the room temperature (21±2° C.) and relative humidity (45-65%) were kept constant. In one experiment, rats received i.p. injections (2 ml/kg, −20 minutes prior to the familiarisation trial) of memantine (n=12) at 5, 10, 15 and 20 mg/kg compared with vehicle (0.5% methylcellulose in saline, 2 ml/kg), such that all rats received all doses of the compound in a random order with each behavioural test occurring at seven day intervals.
In the combination study, a group of rats (n=12 each) received injection of a sub-effective dose of compound 841 (1 mg/kg i.p.) or vehicle (0.5% methylcellulose in saline, 2 ml/kg), either alone or combined with memantine (5 mg/kg). Each drug combination was administered to all rats in the group over a period of 4 weeks in a random order using a seven day behavioural test interval. […]

In the case of `CC12CC3CC(C)(C1)CC(N)(C3)C2` [memantine, 1-amino-3,5-dimethyladamantane], the “discrimination of a novel object against a familiar object (time spent exploring each object)” value is reported as “high amounts of said compound are necessary for rats to discriminate a novel object against a familiar object”.
